Data from ChEMBL document CHEMBL1201862, “PubChem BioAssay data set” (2004).
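These data come from cells grown in 96-well plates and exposed to compound for 48 hours at five concentrations. Here, GI50 denotes the concentration required for 50% inhibition of growth.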 Calls of active or inactive are those of the source. Cut-off read from the data, not from the text of the source: active = GI50 up to about 1.1 µM and inactive = higher.

Columns and labels:
Assay in all cases: NCI anticancer screen, dose series, 48 h
[1] = test system: 786-0
[2] = test system: HOP-62
[3] = test system: MDA-N
[4] = test system: LOX IMVI
[5] = test system: NCI-H23
[6] = test system: MCF7
[7] = test system: BT-549
[8] = test system: SK-OV-3
[9] = test system: TK-10
[10] = test system: KM12
[11] = test system: NCI/ADR-RES
[12] = test system: SK-MEL-28
[13] = test system: Hs-578T
[14] = test system: OVCAR-5
[15] = test system: T47D
[16] = test system: UO-31
[17] = test system: ACHN
[18] = test system: A549
[19] = test system: NCI-H522

SMILES | GI50 [1] | GI50 [2] | GI50 [3] | GI50 [4] | GI50 [5] | GI50 [6] | GI50 [7] | GI50 [8] | GI50 [9] | GI50 [10] | GI50 [11] | GI50 [12] | GI50 [13] | GI50 [14] | GI50 [15] | GI50 [16] | GI50 [17] | GI50 [18] | GI50 [19]
O=C(O)COc1cc(-c2ccccc2)nc2ccccc12 | 81.8 µM (inactive) | 95.9 µM (inactive) | 26.1 µM (inactive) | 99.8 µM (inactive) | 77.6 µM (inactive) | 49 µM (inactive) | > 100 µM (inactive) | 73.3 µM (inactive) | > 100 µM (inactive) | 50.1 µM (inactive) | 52.1 µM (inactive) | 73.3 µM (inactive) | 62.4 µM (inactive) | > 100 µM (inactive) | > 100 µM (inactive) | 61.4 µM (inactive) | > 100 µM (inactive) | 66.4 µM (inactive) | 77.4 µM (inactive)
O=C1c2scc(-c3ccccc3)c2-n2cccc21 | 13.9 µM (inactive) | 16.3 µM (inactive) | 16.1 µM (inactive) | 14.4 µM (inactive) |  | 17.3 µM (inactive) | 25.9 µM (inactive) | 19.3 µM (inactive) | 49.8 µM (inactive) | 13.6 µM (inactive) | 17.5 µM (inactive) | 15.2 µM (inactive) | 4.59 µM (inactive) | 21 µM (inactive) | 17.7 µM (inactive) | 22.5 µM (inactive) | > 100 µM (inactive) | 18.5 µM (inactive) | 11.4 µM (inactive)
COc1ccccc1CCN1CCN(CCCc2ccccc2)CC1 | 45.6 µM (inactive) | > 100 µM (inactive) | 58.9 µM (inactive) | 64.6 µM (inactive) |  | 79.6 µM (inactive) | > 100 µM (inactive) | > 100 µM (inactive) | 75.5 µM (inactive) | 62.7 µM (inactive) | > 100 µM (inactive) | > 100 µM (inactive) | > 100 µM (inactive) | > 100 µM (inactive) | 55.3 µM (inactive) | 46.3 µM (inactive) | > 100 µM (inactive) | 85.7 µM (inactive) | 32.4 µM (inactive)
CC(=O)Nc1ccc2c3c(cc(O)c2c1)N(C(=O)CCCC(=O)Nc1ccc2c4c(cc(O)c2c1)N(C(=O)OC(C)(C)C)CC4CCl)CC3CCl (centres undefined) | 1.23 µM (inactive) | 2.01 µM (inactive) | 1.05 µM (active) | 0.904 µM (active) | 1.42 µM (inactive) | 0.225 µM (active) | 0.881 µM (active) | 1.62 µM (inactive) | 7.6 µM (inactive) | 2.26 µM (inactive) | > 50 µM (inactive) | 1.91 µM (inactive) | 1.55 µM (inactive) | 2.3 µM (inactive) | 0.418 µM (active) | > 38.5 µM (inactive) | 5.22 µM (inactive) | 9.4 µM (inactive) | 0.371 µM (active)
COc1ccc(C(C)NNC(=O)c2cc[n+]([BH2-]C#N)cc2)cc1OC (centres undefined) | > 100 µM (inactive) | > 100 µM (inactive) | > 100 µM (inactive) | > 100 µM (inactive) | > 100 µM (inactive) | > 100 µM (inactive) | > 100 µM (inactive) | 54.3 µM (inactive) | > 100 µM (inactive) | > 100 µM (inactive) | > 100 µM (inactive) | > 100 µM (inactive) | > 100 µM (inactive) | > 100 µM (inactive) | > 100 µM (inactive) | > 100 µM (inactive) | > 100 µM (inactive) | > 100 µM (inactive) | > 100 µM (inactive)
N=C(N)N/N=C/c1c(-c2ccc(Cl)cc2)nc2sc(Cl)cn12 | 1.58 µM (inactive) | 1.85 µM (inactive) | 1.72 µM (inactive) | 0.169 µM (active) | 1.08 µM (active) | 1.53 µM (inactive) | 1.27 µM (inactive) | 1.93 µM (inactive) | 1.72 µM (inactive) | 1.03 µM (active) | 1.79 µM (inactive) | 1.81 µM (inactive) | 1.85 µM (inactive) | 1.67 µM (inactive) | 1.12 µM (inactive) | 1.68 µM (inactive) | 3.85 µM (inactive) | 1.7 µM (inactive) | 2.04 µM (inactive)
c1ccc(C[n+]2cccc(-c3cc4ccccc4[nH]3)c2)cc1 | 50.1 µM (inactive) | 31.8 µM (inactive) | 19.1 µM (inactive) | 19.1 µM (inactive) | 16.4 µM (inactive) | 27.6 µM (inactive) | 13.4 µM (inactive) | > 100 µM (inactive) | 32.7 µM (inactive) | 16.6 µM (inactive) | > 100 µM (inactive) | 16.4 µM (inactive) | 20.2 µM (inactive) | 42.7 µM (inactive) | 23.6 µM (inactive) | > 100 µM (inactive) | > 100 µM (inactive) | 91.2 µM (inactive) | 16.4 µM (inactive)
CC(C)(C)C(=O)Nc1cccc(-c2ccc[nH]2)n1 | > 100 µM (inactive) | > 100 µM (inactive) | > 100 µM (inactive) | > 100 µM (inactive) | > 100 µM (inactive) | > 100 µM (inactive) | > 100 µM (inactive) | > 100 µM (inactive) | > 100 µM (inactive) | > 100 µM (inactive) | > 100 µM (inactive) | > 100 µM (inactive) | 22.7 µM (inactive) | > 100 µM (inactive) | > 57.5 µM (inactive) | > 96.8 µM (inactive) | > 100 µM (inactive) | > 100 µM (inactive) | > 75 µM (inactive)
COC(=O)c1ccccc1C1CN=NC12Cc1cc(C)c(C)cc1C2=O (centres undefined) | 63.1 µM (inactive) | 78 µM (inactive) | 33.7 µM (inactive) | 20.4 µM (inactive) | 29.1 µM (inactive) | 24.4 µM (inactive) | 65.9 µM (inactive) | 40.3 µM (inactive) | 25.8 µM (inactive) | 29.7 µM (inactive) | 23.6 µM (inactive) | 87.7 µM (inactive) | 45.5 µM (inactive) | > 100 µM (inactive) | 31.8 µM (inactive) | 30.3 µM (inactive) | 40.2 µM (inactive) | 37.8 µM (inactive) | 14.3 µM (inactive)
C1=C\SS/C=C\SS/C=C\SS/C=C\SS/1 | 46 µM (inactive) | 69.7 µM (inactive) | > 100 µM (inactive) | 42.4 µM (inactive) | > 100 µM (inactive) | 46.7 µM (inactive) | > 100 µM (inactive) | > 100 µM (inactive) | > 100 µM (inactive) | > 100 µM (inactive) | > 100 µM (inactive) | > 100 µM (inactive) | > 100 µM (inactive) | > 100 µM (inactive) | > 100 µM (inactive) | > 100 µM (inactive) | > 100 µM (inactive) | > 100 µM (inactive) | 15.2 µM (inactive)
COc1ccc(N)c(C(O)CCNC(C)=O)c1 (centres undefined) | > 100 µM (inactive) |  | > 100 µM (inactive) | > 100 µM (inactive) | > 100 µM (inactive) | > 100 µM (inactive) | > 100 µM (inactive) | > 100 µM (inactive) | > 100 µM (inactive) | > 100 µM (inactive) | > 100 µM (inactive) |  | > 100 µM (inactive) | > 100 µM (inactive) | > 100 µM (inactive) | > 100 µM (inactive) | > 100 µM (inactive) | > 100 µM (inactive) | > 100 µM (inactive)
O=C(CCc1cc(O)cc(O)c1)NCCc1ccc(O)c(O)c1 | > 100 µM (inactive) | > 100 µM (inactive) | 36.7 µM (inactive) | > 100 µM (inactive) | > 100 µM (inactive) | > 100 µM (inactive) | > 100 µM (inactive) | > 100 µM (inactive) | > 100 µM (inactive) | > 100 µM (inactive) | > 100 µM (inactive) | > 100 µM (inactive) | > 100 µM (inactive) | > 100 µM (inactive) | > 100 µM (inactive) | > 100 µM (inactive) | > 100 µM (inactive) | > 100 µM (inactive) | > 100 µM (inactive)
CC1(C)OCC(C2CCC3(C)C4=CCC5C(C)(C)C(O)CCC5(C)C4CCC23C)CC(O)C1O (centres undefined) | 13.4 µM (inactive) |  | 17.9 µM (inactive) | 17.1 µM (inactive) | 17.8 µM (inactive) | 20.7 µM (inactive) | 15.9 µM (inactive) | 18.3 µM (inactive) | 13.6 µM (inactive) | 14.5 µM (inactive) | 20.3 µM (inactive) | 17.3 µM (inactive) | 19.9 µM (inactive) | 19.1 µM (inactive) | 8.61 µM (inactive) | 16.7 µM (inactive) | 20.2 µM (inactive) | 16.5 µM (inactive) | 20 µM (inactive)
O[C@H]1[C@H](O)[C@@H](Cn2nnc(-c3ccccc3)c2-c2ccccc2)OCO[C@@H]1Cn1nnc(-c2ccccc2)c1-c1ccccc1 | 2.88 µM (inactive) | 13.1 µM (inactive) | 3.84 µM (inactive) | 2.32 µM (inactive) | 5.92 µM (inactive) | 3.24 µM (inactive) | 5.31 µM (inactive) | 3.38 µM (inactive) | 5.14 µM (inactive) | 3.63 µM (inactive) | 7.24 µM (inactive) | 6.18 µM (inactive) | 6.85 µM (inactive) | 2.58 µM (inactive) | 7.98 µM (inactive) | 4.19 µM (inactive) | 3.63 µM (inactive) | 3.74 µM (inactive) | 5.31 µM (inactive)
COc1ccc(OC/C(N)=N/NC(=O)c2ccncc2)cc1 | > 100 µM (inactive) | > 100 µM (inactive) | > 100 µM (inactive) | > 100 µM (inactive) | > 100 µM (inactive) | > 100 µM (inactive) | > 100 µM (inactive) | > 100 µM (inactive) | > 100 µM (inactive) | > 100 µM (inactive) | > 100 µM (inactive) | > 100 µM (inactive) | > 100 µM (inactive) | > 100 µM (inactive) | > 100 µM (inactive) |  | > 100 µM (inactive) | > 100 µM (inactive) | > 100 µM (inactive)
